Experiments:
[1] = test system: mouse skin; test: In vivo delivery by intradermal injection and luciferase assay (pGL3CMV plasmid); parameters: species or system Balb/c×C3H F1 female mice; conditions: FIG. 3, OPTIMEM, 0.5:1 (w/w gemini:DNA)
Description: Plasmid pGL3CMV is a luciferase expression vector based upon pGL3 Basic, (Promega Corporation., Madison, Wis., USA), where the CMV immediate early promoter drives luciferase expression. The plasmid pGL3CMV was used in all gene expression studies in mouse skin biopsies and has been described in WO03/061636.
Gemini surfactants were mixed with plasmid DNA by drop by drop addition of the diluted gemini surfactant formulation (in OPTIMEM) to the diluted plasmid DNA formulation (in OPTIMEM) at room temperature whilst the mixture was being mixed using a Vortex mixer (Mini Vortexer, VWR). […]
Plasmid DNA was delivered into the skin of Balb/c×C3H F1 female mice. […] Groups of 8-10 animals (or 4 to 5 animals with two injection sites) were analysed for skin gene expression. […]
Skin samples were thawed to room temperature and disrupted in 500 ul of Passive Lysis Buffer™ (Promega Corporation, Madison, Wis., USA) using an IKA Labortechnic Ultra turrax T8 polytron. Luciferase enzyme activity was determined using a luciferase assay kit (Promega). […] Luciferase activity (RLU) was measured as counts per minute on the Victor 2 1420 multilabel HTS counter on the luminescence program (Wallac, Perkin Elmer). Total protein concentration was calculated by a Coomassie Plus protein assay reagent kit (Perbio) using the manufacturer's protocol. […] The absorbance was measured at 595 nm on a Molecular Devices Spectra Max 340. […]

[2] = test system: Balb/c mice; test: Cellular immune responses by IFN-γ / IL2 ELISPOT after immunisation with plasmid p7313iTrng; format: in vivo; conditions: Example 48; intradermal delivery, FIGS. 5 to 10
Description: Plasmid p7313iTrng, is a vector where the CMV immediate early promoter drives the expression of a fusion antigen, RNG, consisting of parts of the HIV reverse transcriptase, nef and gag genes. The plasmid p7313iTrng was used in all immune response studies in mouse (WO03/025003).
Acclimatised 6-8 week old Female Balb/c mice were maintained under general anaesthesia using an oxygen-controlled inhaled Isoflourane mask for application by intradermal injection to the pre-shaved lower back above the base of the tail. Where necessary mice were given Rimadyl (Carprofen) as an analgesic in a sub-cutaneous dose of 5 mg/Kg, diluted 1:10 and delivered at 20 μl/mouse. […]
Mice were killed by cervical dislocation and spleens were collected into ice-cold PBS. […] After two washes in PBS to remove particulate matter the concentration of cells in the single cell suspension was assessed by counting in a Guava Flow Cytometer. […] After overnight culture, IFN-γ or IL2 producing cells were visualised by application of anti-murine IFN-γ-biotin or IL2-biotin labelled antibody (Pharmingen) followed by streptavidin-conjugated alkaline phosphatase and quantitated using image analysis.
Representatives of 3 classes of gemini surfactants were assessed for their ability to induce both cellular and humoral immune responses upon delivery to mouse skin through the intradermal route. […]

[3] = test system: Balb/c mice; test: Humoral responses by ELISA, antigen-specific whole IgG (HIV RNG fusion protein); format: in vivo; conditions: Example 48; intradermal delivery, FIG. 11, day 14 post-boost
Description: Acclimatised 6-8 week old Female Balb/c mice were maintained under general anaesthesia using an oxygen-controlled inhaled Isoflourane mask for application by intradermal injection to the pre-shaved lower back above the base of the tail. Where necessary mice were given Rimadyl (Carprofen) as an analgesic in a sub-cutaneous dose of 5 mg/Kg, diluted 1:10 and delivered at 20 μl/mouse. Injections of up to 50 μl of freshly formulated DNA with or without gemini surfactant were given via BD 0.5 ml insulin syringes with 29 g needles.
The humoral response was assessed by measuring antigen-specific whole IgG antibody levels (eg. to HIV RNG fusion protein) in the serum samples collected after primary and boost immunisation. […] The amount of bound antibody was determined after 4 further washes (as above) followed by addition of TMB substrate solution (T-8540-Sigma). After 30 minutes at 20° C. protected from light, the reaction is stopped with 1M sulphuric acid and absorbance read at 450 nm. […]
Humoral responses to RNG fusion peptide (WO03/025003), as serum whole IgG, were monitored at day 14 post-boost (FIG. 11). […]
Humoral responses were also analysed in this example. The humoral responses were measured as whole serum IgG and data were collected both after a homologous prime and boost and again after a heterologous boost with NHP Adenovirus p6GRN, see FIG. 42. […]

[4] = Particle size of gemini surfactant solutions by quasi-elastic light scattering (QELS); format: physicochemical; conditions: fresh solutions stored at 4° C., particle size at bi-weekly intervals, 10-week study, FIG. 28
Description: All gemini surfactants were prepared from lyophilised stocks by vortex re-suspension in pure water at a stock concentration of 1 mg/ml stored at 4° C. Gemini surfactants were diluted either in pure water or were directly diluted in Optimem®1 (GIBCO Invitrogen) for immediate use. Where gemini surfactants were formulated together with other helper lipids such as DOPE, these were co-lyophilised at a 1:1, (w/w) ratio and similarly vortex re-suspended in pure water at a stock concentration of 1 mg/ml stored at 4° C.
(§1) The size of the particles formed by gemini surfactants and their complexes with plasmid DNA was measured by quasi-elastic light scattering (QELS) (Finsy, R., Advances in Colloid and Interface Science (1994) 52 (19 September):79-143; Gittings, M. R., and Saville, D. A., Colloids and Surfaces A: Physicochemical and Engineering Aspects (1998) 141: 111-117). Samples (50 μl) were analysed using a Brookhaven Instruments Corporation particle size analyser (BIC 90 Plus) following the manufacturer's instructions: 10 measurements, each consisting of 10 runs were taken per sample. […] The average particle size was automatically derived from the raw data by the instrument and expressed as the mean hydrodynamic diameter in nanometers (nm). […]
The colloidal properties of gemini surfactant solutions were monitored over time in order to analyse their apparent instability in greater detail. […]

[5] = test system: plasmid DNA (pdpSC18); test: Particle size of gemini surfactant-plasmid DNA complexes (lipoplexes) by QELS; format: physicochemical; conditions: buffers covering pH 6.5 to pH 4.5, FIG. 33
Description: Gemini surfactants were mixed with plasmid DNA by drop by drop addition of the diluted gemini surfactant formulation (in OPTIMEM) to the diluted plasmid DNA formulation (in OPTIMEM) at room temperature whilst the mixture was being mixed using a Vortex mixer (Mini Vortexer, VWR). The ratio of gemini surfactant to plasmid DNA was varied from 0.2:1 (w/w) to 4:1 (w/w) so that for a final volume of 50 ul per delivery, the formulation contained 10 ug of plasmid DNA with gemini surfactant at the correct ratio. Gemini: DNA mixtures or complexes were left at room temperature for 15 minutes post mixing to form and were then delivered to animals within 15 to 30 minutes. […]
as §1

SMILES	gene delivery and/or expression in mouse skin versus DNA with DMRIE-C or electroporation [1]	level of cellular immune responses versus PMED at boost [2]	level of humoral immune responses versus PMED at boost [3]	storage time for which the solution remained stable before particle formation [4]	pH sensitivity of lipoplexes (particle size versus pH) [5]
CCCCCCCC/C=C\CCCCCCCC(=O)NCCCN(CCCCN(CCCNC(=O)CCCCCCCCCCCCCCCCC)C(=O)[C@H](N)CCCCN)C(=O)[C@H](N)CCCCN [GSC103 D-Lys, Oleic Acid, Stearic Acid]	exception				
CCCCCCCC/C=C\CCCCCCCC(=O)NCCCN(CCCCN(CCCNC(=O)CCCCCCC/C=C\CCCCCCCC)C(=O)[C@@H](N)CCCCN)C(=O)[C@@H](N)CCCCN [GSC103-L-Lys]		comparable to those induced by PMED at boost	comparable to those induced by PMED at boost	2 weeks	fluctuated with falling pH

Source: patent US20110045027A1, “Adjuvant” (Glaxo Group Limited, priority 2005, published 2011)
